Here are results for 1 molecule from ChEMBL document CHEMBL4402535, “Ellagic acid a multi-target bioactive compound for drug discovery in CNS? A narrative review” (Eur J Med Chem, 2019).

SMILES strings stand for the structures.

The target in one test is Salmon testes DNA. In words: Binding affinity to salmon DNA isolated from testis using dopamine as substrate in presence of CuCl2. In kind it is nucleic-acid assay, Salmonidae.
For test [1], the target named is T1, Amyloid-beta precursor protein (Homo sapiens, UniProt P05067). Put plainly: Inhibition of beta amyloid in human SH-SY5Y cells. In kind it is cell-based.
For test [2], the target named is T1, Amyloid-beta precursor protein. In words: Inhibition of beta amyloid (unknown origin) after 12 to 24 hrs.
The target of the next test is Acetylcholinesterase (Electrophorus electricus, UniProt O42275). Put plainly: Inhibition of electric eel AChE using acetylthiocholine iodide as substrate measured at 1 min intervals for 5 mins by Ellman's method. (DTNB colorimetry detects thiols as they appear.)
The nature of test [3]: Antioxidant activity assessed as DPPH radical scavenging activity after 1 hr. The format is functional. A general note: DPPH is a stable violet radical that fades when it is reduced.
Test [4] in a line: Antioxidant activity assessed as DPPH radical scavenging activity. The format is functional.
Test [5] deals with Acetylcholinesterase (Electrophorus electricus) (UniProt O42275). In words: Inhibition of electric eel AChE using acetylthiocholine iodide as substrate.
Test [6] addresses Cholinesterase (Equus caballus) (UniProt P81908). In words: Inhibition of equine serum BuChE using S-butyrylthiocholine chloride as substrate.
Test [7] has as its target T2, Amine oxidase [flavin-containing] A (Homo sapiens, UniProt P21397).
T2 sequence (P21397 whole entry): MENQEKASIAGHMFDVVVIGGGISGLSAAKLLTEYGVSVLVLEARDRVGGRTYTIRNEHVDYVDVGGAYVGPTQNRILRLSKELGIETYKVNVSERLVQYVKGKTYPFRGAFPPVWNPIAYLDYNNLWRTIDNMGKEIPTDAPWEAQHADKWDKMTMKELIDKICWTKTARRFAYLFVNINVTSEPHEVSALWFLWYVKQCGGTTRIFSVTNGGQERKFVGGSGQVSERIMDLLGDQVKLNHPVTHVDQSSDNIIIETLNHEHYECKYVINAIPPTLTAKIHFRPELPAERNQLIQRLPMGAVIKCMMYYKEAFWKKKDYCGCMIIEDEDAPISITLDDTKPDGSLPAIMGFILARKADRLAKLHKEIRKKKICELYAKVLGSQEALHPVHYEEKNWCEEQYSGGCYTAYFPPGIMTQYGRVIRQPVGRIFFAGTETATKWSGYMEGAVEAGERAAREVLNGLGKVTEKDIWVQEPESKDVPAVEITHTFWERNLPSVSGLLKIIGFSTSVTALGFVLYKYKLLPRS
Put plainly: Inhibition of MAO-A (unknown origin).

Test [8] can be described thus: Antioxidant activity assessed as O2 radical scavenging activity after 1 hr. The format is functional.
The nature of test [9]: Antioxidant activity assessed as NO radical scavenging activity after 1 hr. In kind it is functional.

T1 sequence (P05067 whole entry): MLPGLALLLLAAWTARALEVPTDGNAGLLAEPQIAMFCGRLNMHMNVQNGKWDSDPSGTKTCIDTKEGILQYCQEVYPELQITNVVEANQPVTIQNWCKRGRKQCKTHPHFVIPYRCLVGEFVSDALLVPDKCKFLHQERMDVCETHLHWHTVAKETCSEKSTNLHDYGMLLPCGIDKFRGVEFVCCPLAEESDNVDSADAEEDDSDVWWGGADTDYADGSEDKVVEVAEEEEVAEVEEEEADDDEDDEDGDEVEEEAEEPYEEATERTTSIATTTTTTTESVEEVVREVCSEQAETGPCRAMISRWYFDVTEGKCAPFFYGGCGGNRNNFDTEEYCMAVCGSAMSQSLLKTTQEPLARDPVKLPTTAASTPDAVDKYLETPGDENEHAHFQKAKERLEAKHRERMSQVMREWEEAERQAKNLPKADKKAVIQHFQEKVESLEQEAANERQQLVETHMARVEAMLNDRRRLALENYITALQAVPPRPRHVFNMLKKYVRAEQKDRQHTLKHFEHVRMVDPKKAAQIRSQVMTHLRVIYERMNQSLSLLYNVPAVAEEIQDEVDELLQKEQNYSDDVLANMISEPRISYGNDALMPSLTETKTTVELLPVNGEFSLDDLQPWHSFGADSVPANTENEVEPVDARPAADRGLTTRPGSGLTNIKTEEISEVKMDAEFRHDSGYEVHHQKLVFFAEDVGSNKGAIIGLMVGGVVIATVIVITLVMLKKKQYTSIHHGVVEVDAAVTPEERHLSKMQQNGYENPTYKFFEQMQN
Sequence of Acetylcholinesterase (Electrophorus electricus) (O42275 24-633 limits assumed): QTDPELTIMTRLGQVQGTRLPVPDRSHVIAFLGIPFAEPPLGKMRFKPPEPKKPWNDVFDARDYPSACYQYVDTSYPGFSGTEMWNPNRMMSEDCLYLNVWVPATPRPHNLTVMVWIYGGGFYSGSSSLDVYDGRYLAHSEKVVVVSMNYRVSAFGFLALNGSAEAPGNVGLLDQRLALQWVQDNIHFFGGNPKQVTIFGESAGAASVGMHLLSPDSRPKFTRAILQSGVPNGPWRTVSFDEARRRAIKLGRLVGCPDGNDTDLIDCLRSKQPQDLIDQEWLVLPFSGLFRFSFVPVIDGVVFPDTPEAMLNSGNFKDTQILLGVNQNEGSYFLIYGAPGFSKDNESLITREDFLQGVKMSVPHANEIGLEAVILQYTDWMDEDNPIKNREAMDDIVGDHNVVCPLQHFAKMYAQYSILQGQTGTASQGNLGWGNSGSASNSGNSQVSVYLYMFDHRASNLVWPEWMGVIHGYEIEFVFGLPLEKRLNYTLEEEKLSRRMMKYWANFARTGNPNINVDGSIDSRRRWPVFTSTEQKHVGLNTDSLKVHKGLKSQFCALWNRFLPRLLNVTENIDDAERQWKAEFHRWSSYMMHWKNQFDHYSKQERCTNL
Sequence of Cholinesterase (Equus caballus) (P81908 whole entry): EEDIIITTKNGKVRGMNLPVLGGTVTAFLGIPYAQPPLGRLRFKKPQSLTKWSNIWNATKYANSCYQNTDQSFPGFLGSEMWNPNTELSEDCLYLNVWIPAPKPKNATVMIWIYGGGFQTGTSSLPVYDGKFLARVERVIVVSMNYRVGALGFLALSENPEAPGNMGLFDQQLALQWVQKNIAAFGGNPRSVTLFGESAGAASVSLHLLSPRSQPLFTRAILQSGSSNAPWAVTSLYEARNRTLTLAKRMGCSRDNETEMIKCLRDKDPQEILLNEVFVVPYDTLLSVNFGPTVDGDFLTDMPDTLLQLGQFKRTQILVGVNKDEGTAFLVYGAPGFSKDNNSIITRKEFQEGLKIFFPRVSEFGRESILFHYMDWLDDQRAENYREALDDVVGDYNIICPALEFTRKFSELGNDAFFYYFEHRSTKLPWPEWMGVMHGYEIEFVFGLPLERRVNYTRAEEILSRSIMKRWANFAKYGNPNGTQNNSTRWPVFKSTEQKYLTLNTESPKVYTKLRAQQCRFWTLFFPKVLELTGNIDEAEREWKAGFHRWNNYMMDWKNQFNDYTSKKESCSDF
Sequence of Acetylcholinesterase (O42275 whole entry): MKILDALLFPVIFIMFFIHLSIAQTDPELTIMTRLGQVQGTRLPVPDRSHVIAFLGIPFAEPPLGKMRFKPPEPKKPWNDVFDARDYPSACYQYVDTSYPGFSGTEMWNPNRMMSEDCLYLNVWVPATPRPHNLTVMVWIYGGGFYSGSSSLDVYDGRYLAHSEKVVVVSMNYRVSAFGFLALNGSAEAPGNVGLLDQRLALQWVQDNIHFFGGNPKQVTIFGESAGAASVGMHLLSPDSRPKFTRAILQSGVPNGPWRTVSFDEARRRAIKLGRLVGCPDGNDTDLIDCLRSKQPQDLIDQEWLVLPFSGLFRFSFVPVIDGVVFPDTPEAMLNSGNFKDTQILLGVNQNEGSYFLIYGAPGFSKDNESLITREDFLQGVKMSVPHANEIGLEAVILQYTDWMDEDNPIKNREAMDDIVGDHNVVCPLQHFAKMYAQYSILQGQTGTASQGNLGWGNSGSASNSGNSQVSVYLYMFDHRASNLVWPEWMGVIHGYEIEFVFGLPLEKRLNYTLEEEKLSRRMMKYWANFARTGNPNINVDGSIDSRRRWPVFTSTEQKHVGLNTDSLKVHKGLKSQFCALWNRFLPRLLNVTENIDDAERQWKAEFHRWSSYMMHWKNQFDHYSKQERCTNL

The IC50 is the concentration at which inhibition is half-maximal. As usually defined, the EC50 is the midpoint of the concentration-response curve. Turning to `O=c1oc2c(O)c(O)cc3c(=O)oc4c(O)c(O)cc1c4c23` [ELLAGIC ACID], the IC50 was 1 to 150 µM at Salmon testes DNA; 300 µM in [1]; 100 to 300 µM in test [2]; 133 µM against Acetylcholinesterase; 31.1 µM in test [3]. Also, the EC50 is 6.9 µM in [4], 1.6 µM in [7], 177 µM in [8] and 24.2 µM in test [9]. This molecule gave an EC24 in test [5] of 250 µM. Further, in test [6], the EC16 was found to be 250 µM.
